According to US20210052705A1, “METHOD OF DRUG […] FOR PTH, PTHrP AND RELATED PEPTIDES” (Radius Health, Inc., priority 2011, published 2021):
Like-named read-outs stand apart in the source and are kept apart here. One block for each molecule: values may come before it.

Assays:
[1] = set-up: AUCR: unit not given beside the values; details: in vivo
clinical = details: female, human, in vivo; for AUC(0-inf): AUC0-inf; for Tmax: Tmax (Median); for half-life: t1/2
in vivo [2] = details: rat, sc, 20 ug/kg
in vivo [3] = details: female, Sprague Dawley, rat, sc

AUC0-inf/dose ([1]; 100 ug): 1.77 ± 0.869 pg·h/mL/µg
AUC0-tau/dose ([1]; 100 ug): 1.77 ± 0.868 pg·h/mL/µg
AUCR ([1]; 100 ug): 0.898 ± 0.0169
CL/F ([1]; 100 ug): 666.2 ± 284.4 L/h
AUC0-inf/dose ([1]; sc): 7.92 ± 2.83 pg·h/mL/µg
AUC0-tau/dose ([1]; sc): 7.91 ± 2.83 pg·h/mL/µg
Mean Dose Normalized AUC0-inf, SC Dose ([1]; sc): 7.92
AUC(0-inf) (clinical; 100 ug): 0.177 ± 0.0869 ng·h/mL
AUC(0-t) (clinical; 100 ug, AUC0-t): 0.154 ± 0.0693 ng·h/mL
AUC (clinical; 100 ug, AUC0-tau): 0.177 ± 0.0868 ng·h/mL
Cmax (clinical; 100 ug, Cmax): 0.317 ± 0.0806 ng/mL
Tmax (clinical; 100 ug): 12.1 min
Vd/F (clinical; 100 ug): 366 ± 128 L
half-life (clinical; 100 ug): 24.1 ± 7.56 min
AUC(0-inf) (clinical; 150 ug): 0.269 ± 0.265 ng·h/mL
Tmax (clinical; 150 ug): 9.84 min
half-life (clinical; 150 ug): 34.1 ± 28.3 min
Tmax (clinical): 7.8 min
Vd/F (clinical): 491 ± 208 L
CL/F (clinical; sc): 2340 mL/min
Tmax (clinical; sc): 25.3 min
Vd/F (clinical; sc): 197 ± 86.2 L
half-life (clinical; sc): 58.2 ± 11.1 min
half-life (clinical): 28 ± 25 min
CL/F (clinical; topical or ocular, 100 ug): 6710 mL/min
SMILES: CC[C@H](C)[C@H](NC(=O)[C@H](CO)NC(=O)[C@H](CCCCN)NC(=O)CNC(=O)[C@H](CCCCN)NC(=O)[C@H](CC(=O)O)NC(=O)[C@H](Cc1cnc[nH]1)NC(=O)[C@H](CC(C)C)NC(=O)[C@H](CC(C)C)NC(=O)[C@H](CCC(N)=O)NC(=O)[C@H](Cc1cnc[nH]1)NC(=O)[C@H](CCC(=O)O)NC(=O)[C@H](CO)NC(=O)[C@@H](NC(=O)[C@H](C)N)C(C)C)C(=O)N[C@@H](CCC(N)=O)C(=O)N[C@@H](CC(=O)O)C(=O)N[C@@H](CC(C)C)C(=O)N[C@@H](CCCNC(=N)N)C(=O)N[C@@H](CCCNC(=N)N)C(=O)N[C@@H](CCCNC(=N)N)C(=O)N[C@@H](CCC(=O)O)C(=O)N[C@@H](CC(C)C)C(=O)N[C@@H](CC(C)C)C(=O)N[C@@H](CCC(=O)O)C(=O)N[C@@H](CCCCN)C(=O)N[C@@H](CC(C)C)C(=O)N[C@@H](CC(C)C)C(=O)NC(C)(C)C(=O)N[C@@H](CCCCN)C(=O)N[C@@H](CC(C)C)C(=O)N[C@@H](Cc1cnc[nH]1)C(=O)N[C@H](C(=O)N[C@@H](C)C(N)=O)[C@@H](C)O

Cmax (in vivo [2]; Cmax): 8.9 ng/mL
Tmax (in vivo [2]; Tmax): 10 min
half-life (in vivo [2]; t1/2): 31 min
level at 0.25 h (in vivo [3]): 0.0108 ± 0.0036 ng/mL
SMILES: CC[C@H](C)[C@H](NC(=O)[C@H](CO)NC(=O)[C@H](CCCCN)NC(=O)CNC(=O)[C@H](CCCCN)NC(=O)[C@H](CC(=O)O)NC(=O)[C@H](Cc1cnc[nH]1)NC(=O)[C@H](CC(C)C)NC(=O)[C@H](CC(C)C)NC(=O)[C@H](CCC(N)=O)NC(=O)[C@H](Cc1cnc[nH]1)NC(=O)[C@H](CCC(=O)O)NC(=O)[C@H](CO)NC(=O)[C@@H](NC(=O)[C@H](C)N)C(C)C)C(=O)N[C@@H](CCC(N)=O)C(=O)N[C@@H](CC(=O)O)C(=O)N[C@@H](CC(C)C)C(=O)N[C@@H](CCCNC(=N)N)C(=O)N[C@@H](CCCNC(=N)N)C(=O)N[C@@H](CCCNC(=N)N)C(=O)N[C@@H](CCC(=O)O)C(=O)N[C@@H](CC(C)C)C(=O)N[C@@H](CC(C)C)C(=O)N[C@@H](CCC(=O)O)C(=O)N[C@@H](CCCCN)C(=O)N[C@@H](CC(C)C)C(=O)N[C@@H](CC(C)C)C(=O)NC(C)(C)C(=O)N[C@@H](CCCCN)C(=O)N[C@@H](CC(C)C)C(=O)N[C@@H](Cc1cnc[nH]1)C(=O)N[C@H](C(=O)N[C@@H](C)C(N)=O)[C@@H](C)O [reference SC]
